Data taken from ChEMBL document CHEMBL5518186, “Discovery of the cereblon-recruiting tubulin PROTACs effective in overcoming Taxol resistance in vitro and in vivo” (Eur J Med Chem, 2024).
The source made the active and inactive calls. The rule behind the calls is not given here.

Experiments:
A549/TR [1] = test: Induction of cell cycle arrest in human A549/Taxol cells assessed as accumulation of cells at S phase at 0.01 uM incubated for 24 hrs by PI staining based flow cytometry analysis (reference value: 2.85%); format: functional
A549/TR [2] = test: Induction of cell cycle arrest in human A549/Taxol cells assessed as accumulation of cells at G2/M phase at 0.01 uM incubated for 24 hrs by PI staining based flow cytometry analysis (reference value: 17.02%); format: functional
[3] = target: T1, Protein cereblon/Tubulin beta-3 chain (Homo sapiens, UniProt Q13509+Q96SW2); test: Protac activity at CRBN/beta3-tubulin in human A549/Taxol cells assessed as reduction in beta3-tubulin level at 0.25 uM pretreated with MG-132 followed by compound addition and measured after 48 hrs by immunoblotting analysis; format: cell-based
Target sequence in this assay (Q13509 whole entry, looked up): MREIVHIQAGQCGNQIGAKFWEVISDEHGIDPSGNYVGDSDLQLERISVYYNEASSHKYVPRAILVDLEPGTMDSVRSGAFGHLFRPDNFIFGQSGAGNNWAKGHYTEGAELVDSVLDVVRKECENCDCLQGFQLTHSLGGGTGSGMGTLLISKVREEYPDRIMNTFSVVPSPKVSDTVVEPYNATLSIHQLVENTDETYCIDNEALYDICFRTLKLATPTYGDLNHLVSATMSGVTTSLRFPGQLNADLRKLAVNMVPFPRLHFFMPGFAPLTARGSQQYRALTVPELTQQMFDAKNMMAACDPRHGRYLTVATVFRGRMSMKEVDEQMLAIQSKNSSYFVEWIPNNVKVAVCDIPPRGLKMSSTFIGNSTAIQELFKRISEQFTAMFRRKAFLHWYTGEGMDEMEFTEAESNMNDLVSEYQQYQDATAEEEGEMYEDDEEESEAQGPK
Target sequence in this assay (Q96SW2 whole entry, looked up): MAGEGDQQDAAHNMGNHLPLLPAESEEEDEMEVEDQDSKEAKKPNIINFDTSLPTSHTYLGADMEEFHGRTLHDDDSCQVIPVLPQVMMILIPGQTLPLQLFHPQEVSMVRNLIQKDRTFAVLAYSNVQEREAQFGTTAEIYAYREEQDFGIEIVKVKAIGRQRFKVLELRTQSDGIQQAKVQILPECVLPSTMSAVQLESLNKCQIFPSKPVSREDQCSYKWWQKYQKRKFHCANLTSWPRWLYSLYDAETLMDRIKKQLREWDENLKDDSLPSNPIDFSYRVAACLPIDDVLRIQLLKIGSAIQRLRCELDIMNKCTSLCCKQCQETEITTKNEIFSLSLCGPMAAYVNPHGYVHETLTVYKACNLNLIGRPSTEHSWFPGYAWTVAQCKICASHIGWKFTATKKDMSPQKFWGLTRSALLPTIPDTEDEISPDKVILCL

A549 [4] = test: Induction of cell cycle arrest in human A549 cells assessed as accumulation of cells at S phase at 0.01 uM incubated for 24 hrs by PI staining based flow cytometry analysis (reference value: 1.39%); format: functional
[5] = target: T1, Protein cereblon/Tubulin beta-3 chain; test: Protac activity at CRBN/beta3-tubulin in human A549 cells assessed as reduction in beta3-tubulin level incubated for 48 hrs by immunoblotting analysis; format: cell-based
A549/TR [6] = test: Antitumor activity against human A549/Taxol cells xenografted in nude mouse assessed as tumor growth inhibition at 15 mg/kg, ip administered once every 2 days for 23 days by Vernier caliper method; format: functional; details: 552 h, time 23 day, read-out: TGI
[7] = Toxicity in nude mouse xenografted with human A549 cells assessed as body weight loss at 15 mg/kg, ip administered once every 2 days for 23 days and measured every 3 days; format: organism-based; details: in vivo, 552 h, time 23 day
A549/TR [8] = test: Inhibition of colony formation in human A549/Taxol cells incubated for 24 hrs followed by media replacement at every 3 days for 14 days by crystal violet staining based assay; format: functional, cell-based; details: dose 2-50 nM, time 14.0 day
HepG2 [9] = test: Inhibition of cell proliferation in human HepG2 cells; format: functional, cell-based
[10] = target: T1, Protein cereblon/Tubulin beta-3 chain; test: Protac activity at CRBN/beta3-tubulin in human A549 cells assessed as reduction in beta3-tubulin level at 0.25 uM pretreated with pomalidomide for 2 hrs followed by compound addition and measured after 24 hrs by immunoblotting analysis; format: cell-based
Target sequence in this assay (Q13509 whole entry, looked up): as the sequence (Q13509 whole entry, looked up) above
Target sequence in this assay (Q96SW2 whole entry, looked up): as the sequence (Q96SW2 whole entry, looked up) above

A549 [11] = test: Antiproliferative activity against human A549 cells incubated for 72 hrs; format: functional, cell-based; details: A549, 72 h
A549 [12] = test: Induction of cell cycle arrest in human A549 cells assessed as accumulation of cells at G0/G1 phase at 0.01 uM incubated for 24 hrs by PI staining based flow cytometry analysis (reference value: 66.75%); format: functional
A549/TR [13] = test: Induction of cell cycle arrest in human A549/Taxol cells assessed as accumulation of cells at G2/M phase at 0.002 uM incubated for 24 hrs by PI staining based flow cytometry analysis (reference value: 17.02%); format: functional
[14] = target: T2, Protein cereblon/Tubulin beta (Homo sapiens) (UniProt P68371+Q9H4B7+Q13509+P04350+Q3ZCM7+P07437+Q13885+Q9BVA1+Q9BUF5+Q96SW2+A6NNZ2); test: Protac activity at CRBN/beta-tubulin in human A549 cells assessed as reduction in beta-tubulin level at 0.25 uM pretreated for 48 hrs followed by compound washout and measured upto 12 hrs by immunoblotting analysis; format: cell-based
[15] = target: T3, Protein cereblon-alpha tubulin (Homo sapiens) (UniProt P0DPH7+P68366+Q71U36+P68363+Q9BQE3+Q6PEY2+A6NHL2+Q9NY65+Q96SW2); test: Protac activity at CRBN/alpha-tubulin in human A549 cells assessed as reduction in alpha-tubulin level at 0.25 uM pretreated for 48 hrs followed by compound washout and measured upto 24 hrs by immunoblotting analysis; format: cell-based
HUVEC = test: Antiangiogenic activity in HUVECs assessed as reduction in tube length at 2.5 nM incubated for 6 to 8 hrs by inverted microscopic analysis; format: functional, cell-based; details: Homo sapiens, time 6-8 hrs
[16] = target: T1, Protein cereblon/Tubulin beta-3 chain; test: Protac activity at CRBN/beta3-tubulin in human HepG2 cells assessed as reduction in beta3-tubulin level at 10 to 1000 nM incubated for 48 hrs by immunoblotting analysis; format: cell-based; details: dose 10-1000 nM
Target sequence in this assay (Q13509 whole entry, looked up): as the sequence (Q13509 whole entry, looked up) above
Target sequence in this assay (Q96SW2 whole entry, looked up): as the sequence (Q96SW2 whole entry, looked up) above

[17] = target: T2, Protein cereblon/Tubulin beta (Homo sapiens); test: Protac activity at CRBN/beta-tubulin in human A549/Taxol cells assessed as reduction in beta-tubulin level at 0.25 uM pretreated with CA-4 for 2 hrs followed by compound addition and measured after 48 hrs by immunoblotting analysis; format: cell-based
A549 [18] = test: Induction of cell cycle arrest in human A549 cells assessed as accumulation of cells at G2/M phase at 0.002 uM incubated for 24 hrs by PI staining based flow cytometry analysis (reference value: 31.86%); format: functional
[19] = target: T2, Protein cereblon/Tubulin beta (Homo sapiens); test: Protac activity at CRBN/beta-tubulin in human A549/Taxol cells assessed as reduction in beta-tubulin level at 0.25 uM pretreated with MG-132 followed by compound addition and measured after 48 hrs by immunoblotting analysis; format: cell-based
[20] = target: T3, Protein cereblon-alpha tubulin (Homo sapiens); test: Protac activity at CRBN/alpha-tubulin in human MGC-803 cells assessed as reduction in alpha-tubulin level at 10 to 1000 nM incubated for 48 hrs by immunoblotting analysis; format: cell-based; details: dose 10-1000 nM
HepG2 [21] = test: Induction of cell cycle arrest in human HepG2 cells assessed as G2/M phase arrest; format: functional, cell-based
[22] = target: T3, Protein cereblon-alpha tubulin (Homo sapiens); test: Protac activity at CRBN/alpha-tubulin in human A549 cells assessed as reduction in alpha-tubulin level at 0.25 uM pretreated with CA-4 for 2 hrs followed by compound addition and measured after 24 hrs by immunoblotting analysis; format: cell-based
[23] = target: T1, Protein cereblon/Tubulin beta-3 chain; test: Protac activity at CRBN/beta3-tubulin in human A549 cells assessed as reduction in beta3-tubulin level at 0.25 uM pretreated with CA-4 for 2 hrs followed by compound addition and measured after 24 hrs by immunoblotting analysis; format: cell-based
Target sequence in this assay (Q13509 whole entry, looked up): as the sequence (Q13509 whole entry, looked up) above
Target sequence in this assay (Q96SW2 whole entry, looked up): as the sequence (Q96SW2 whole entry, looked up) above

HepG2 [24] = test: Induction of intracellular ROS generation in human HepG2 cells; format: functional, cell-based
A549/TR [25] = test: Induction of cell cycle arrest in human A549/Taxol cells assessed as accumulation of cells at G0/G1 phase at 0.002 uM incubated for 24 hrs by PI staining based flow cytometry analysis (reference value: 77.86%); format: functional
A549 [26] = test: Inhibition of cell growth in human A549 cells incubated for 72 hrs by SRB method; format: functional, cell-based
MCF7 = test: Antiproliferative activity against human MCF7 cells incubated for 72 hrs; format: functional, cell-based; details: MCF7, 72 h
[27] = Toxicity in nude mouse xenografted with human A549/Taxol cells assessed as body weight loss at 15 mg/kg, ip administered once every 2 days for 23 days and measured every 3 days; format: organism-based, A549/TR; details: in vivo, 552 h, time 23 day
[28] = target: T2, Protein cereblon/Tubulin beta (Homo sapiens); test: Protac activity at CRBN/beta-tubulin in human HepG2 cells assessed as reduction in beta-tubulin level at 10 to 1000 nM incubated for 48 hrs by immunoblotting analysis; format: cell-based; details: dose 10-1000 nM
A549 [29] = test: Induction of cell cycle arrest in human A549 cells assessed as accumulation of cells at G2/M phase at 0.05 uM incubated for 24 hrs by PI staining based flow cytometry analysis (reference value: 31.86%); format: functional
[30] = target: T3, Protein cereblon-alpha tubulin (Homo sapiens); test: Protac activity at CRBN/alpha-tubulin in human A549/Taxol cells assessed as reduction in alpha-tubulin level at 0.25 uM pretreated with MG-132 followed by compound addition and measured after 48 hrs by immunoblotting analysis; format: cell-based
HepG2 [31] = test: Antiproliferative activity against human HepG2 cells incubated for 72 hrs; format: functional, cell-based; details: HepG2, 72 h

## COc1ccc(/C=C\c2cc(OC)c(OC)c(OC)c2)cc1OC(=O)CCCNc1cccc2c1C(=O)N(C1CCC(=O)NC1=O)C2=O (stereo not given)
A549/TR [1]
  Activity: 10.77%
A549/TR [2]
  Activity: 63.83%
[3]
  Activity: inactive
A549 [4]
  Activity: 15.35%
[5]
  Activity: Dose-Dependent Effect
  DC50: 0.251 µM
A549/TR [6]
  inhibition in vivo at 15 mg/kg: 65.8%
[7]
  Activity: Non-Toxic
A549/TR [8]
  inhibition: Dose-Dependent Effect
HepG2 [9]
  inhibition: Active
[10]
  Activity: inactive
A549 [11]
  IC50: 0.01 µM
A549 [12]
  Activity: 16.29%
A549/TR [13]
  Activity: 23.69%
[14]
  Activity: Active
[15]
  Activity: Active
HUVEC
  Activity: Active
[16]
  Activity: Active
[17]
  Activity: inactive
A549 [18]
  Activity: 37.03%
[19]
  Activity: inactive
[20]
  Activity: Active
HepG2 [21]
  Activity: Active
[22]
  Activity: inactive
[23]
  Activity: inactive
HepG2 [24]
  Activity: Active
A549/TR [25]
  Activity: 67.61%
A549 [26]
  inhibition: Dose-Dependent Effect
A549 [26]; A549, 72 h
  IC50: 0.01 µM
MCF7
  IC50: 0.012 µM
[27]
  Activity: Non-Toxic
[28]
  Activity: Active
A549 [29]
  Activity: 73.41%
[30]
  Activity: inactive
HepG2 [31]
  IC50: 0.004 µM
